Data taken from patent US20260240869A1, “ANTIPSEUDOMONAL FUSIDIC ACID COMPOUNDS” (priority 2022, published 2026).
Converted amounts (≈) assume the structure as drawn. Read-outs that look alike come from different tables or passages of the source.

Key:
tolC EC = settings: retrospective literature analysis (Table 6); cited from earlier work
WT PA = settings: retrospective literature analysis (Table 6); cited from earlier work
PA efflux KO = settings: retrospective literature analysis (Table 6); cited from earlier work
WT EC = settings: retrospective literature analysis (Table 6); cited from earlier work
E. coli MG1655 = test: MIC, E. coli MG1655; assay type: cell-based; settings: Escherichia coli, MG1655; Table 9; read-out: MIC E. coli MG1655
Description: (§1) Antimicrobial Susceptibility Tests. Susceptibility testing was performed in biological triplicate, using the microdilution broth method as outlined by the Clinical and Laboratory Standards Institute. Bacteria were cultured with cation-adjusted Meuller-Hinton broth (Sigma-Aldrich; catalogue number: 90922) or Luria-Bertani (LB) broth (Lennox) in round-bottom 96-well plates (Corning; catalogue number: 3788).

S. aureus ATCC 29213 = test: MIC, S. aureus ATCC 29213; assay type: cell-based; settings: Staphylococcus aureus, ATCC29213; Table 9; read-out: MIC S. aureus ATCC 29213
Description: as §1

P. aeruginosa PAO1 [1] = test: MIC, CLSI broth microdilution, P. aeruginosa PAO1; assay type: cell-based, Pseudomonas aeruginosa; settings: for MIC: Pseudomonas aeruginosa
Description: as §1

P. aeruginosa PA14 = test: MIC, P. aeruginosa PA14; assay type: cell-based, Pseudomonas aeruginosa; settings: for MIC: Pseudomonas aeruginosa
Description: as §1

P. aeruginosa PA1280 = test: MIC, P. aeruginosa PA1280; assay type: cell-based, Pseudomonas aeruginosa; settings: for MIC: Pseudomonas aeruginosa
Description: as §1

P. aeruginosa PAO1 [2] = test: LC-MS/MS whole-cell accumulation assay, P. aeruginosa PAO1; assay type: cell-based, Pseudomonas aeruginosa
Description: (§2) Accumulation Assay. The accumulation assay was performed in triplicate in batches of ten samples, with each batch containing tetracycline or ciprofloxacin as a positive control. P. aeruginosa PAO1, PAO1 A6, PA14, PA14 A40, and PA1280, and E. coli MG1655 were used in these experiments. For each replicate, 2.5 mL (E. coli) or 5 mL (P. aeruginosa) of an overnight culture was diluted into 250 mL of fresh Luria-Bertani broth (Lennox) or Tryptic Soy Broth (TSB) and grown at 37° C. with shaking to an optical density (OD600) of 0.55-0.60. The bacteria were pelleted at 3220 r.c.f. for 10 min at 4° C., and the supernatant was discarded. The pellets were resuspended in 40 mL of phosphate buffered saline (PBS) and pelleted as before, and the supernatant was discarded. The pellets were resuspended in 8.8 mL of fresh PBS and aliquoted into ten, 1.5 mL Eppendorf tubes (875 μL each). The number of colony-forming units (CFUs) was determined by a calibration curve. The samples were equilibrated at 37° C. with shaking for 5 min; compound was added (final concentration=50 μM), and then the samples were incubated at 37° C. with shaking for either 10 min. These time points were short enough to minimize metabolic and growth changes (no changes in OD600 or CFU count observed). After incubation, 800 μL of the cultures was carefully layered on 700 μL of silicone oil (9:1 AR20/Sigma High Temperature, cooled to −78° C.). Bacteria were pelleted through the oil by centrifuging at 13 000 r.c.f. for 2 min at room temperature (with the supernatant remaining above the oil); the supernatant and oil were then removed by pipetting. To lyse the samples, each pellet was dissolved in […] of water, and then, they were subjected to three (E. coli) or four (P. aeruginosa) freeze-thaw cycles of 3 min in liquid nitrogen followed by 3 min in a water bath at 65° C. P. aeruginosa samples were then treated with 50 µM DNase and RNase and incubated at 37° C. for 15 minutes. The lysates were pelleted at 13 000 r.c.f. for 2 min at room temperature, and the supernatant was collected ([…]). The debris was resuspended in 100 μL of methanol and pelleted as before. The supernatants were removed and combined with the previous supernatants collected. Finally, the remaining debris was removed by centrifuging at 20 000 r.c.f. for 10 min at room temperature. Supernatants were analyzed by LC-MS/MS.
(§3) Samples were analyzed with the 5500 QTRAP LC/MS/MS system (AB Sciex) with a 1200 series HPLC system (Agilent Technologies) including a degasser, an autosampler, and a binary pump. Liquid chromatography separation was performed on an Agilent SB-Aq column (4.6×50 mm, 5 μm) (Agilent Technologies) with mobile phase A (0.1% formic acid in water) and mobile phase B (0.1% formic acid in acetonitrile). The flow rate was 0.3 mL/min. The linear gradient was as follows: 0-3 min, 100% mobile phase A; 10-15 min, 2% mobile phase A; 15.5-21 min, 100% mobile phase A. The autosampler was set at 5° C. The injection volume was 15 μL. Mass spectra were acquired with both positive electrospray ionization at the ion spray voltage of 5500 V and negative electrospray ionization at the ion spray voltage of −4500 V. The source temperature was 450° C. The curtain gas, ion source gas 1, and ion source gas 2 were 33, 50, and 65, respectively. Multiple reaction monitoring was used to quantify the metabolites. Power analysis was not used to determine the number of replicates. Error bars represent the standard error of the mean of three biological replicates. The statistical significance of the accumulation was determined using a two sample Welch's t test (one-tailed test, assuming unequal variance) relative to the negative controls. All compounds evaluated in the biological assays were >95% pure.
MBN assay. Assays measuring permeabilization by polymyxin B nonapeptide (PMBN) were performed as above, with the addition of 8 μg/mL PMBN immediately before the compound of interest was added.

P. aeruginosa PAΔ6 [3] = test: MIC, efflux pump knockout strain PAΔ6; assay type: cell-based, Pseudomonas aeruginosa
Description: as §1

P. aeruginosa PAΔ6 [4] = test: LC-MS/MS whole-cell accumulation assay, PAΔ6; assay type: cell-based, Pseudomonas aeruginosa; settings: FIG. 1c
Description: as §2, §3

[5] = WT P. aeruginosa PAO1, MH broth (Table 1), read-out: PAO1 MIC
[6] = PA14, MH broth (Table 4), read-out: PA14 MIC
[7] = PA1280, MH broth (Table 4), read-out: PA1280 MIC

Cc1ccc2c(C)c3c(c(O)c2c1O)C(=O)[C@]1(O)C(=O)C(C(N)=O)=C(O)[C@H](N)[C@@H]1C3 [CDCHD]
tolC EC MIC (tolC EC): 0.25 µg/mL
WT PA MIC (WT PA): 1 µg/mL

CC(=O)C1=C(O)[C@H](N)[C@@H]2Cc3c(c(O)c4c(O)c(C)ccc4c3C)C(=O)[C@]2(O)C1=O [CHD]
tolC EC MIC (tolC EC): 0.5 µg/mL
WT PA MIC (WT PA): 16 µg/mL

Cc1c(N2CC[C@@H]([C@H](C)N)C2)c(F)cc2c(CN)cc(=O)n(C3CC3)c12 [Compound 10]
tolC EC MIC (tolC EC): 0.06 µg/mL
PA efflux KO MIC (PA efflux KO): 0.5 µg/mL
WT PA MIC (WT PA): 2 µg/mL
WT EC MIC (WT EC): 1 µg/mL

Cc1c(N2CC[C@@H]([C@H](C)N)C2)c(F)cc2c(CO)cc(=O)n(C3CC3)c12 [Compound 11]
tolC EC MIC (tolC EC): 0.25 µg/mL
PA efflux KO MIC (PA efflux KO): 4 µg/mL
WT PA MIC (WT PA): 16 µg/mL
WT EC MIC (WT EC): 16 µg/mL

Cc1nc(-c2ccc(C(C)(C)C)cc2)ncc1C(=O)N[C@@H](CCN)C(=O)N(C)[C@@H]1C(=O)N[C@@H](C)C(=O)N[C@H](C(=O)NCC#N)Cc2ccc(OCCN)c(c2)-c2cc1ccc2OCCN [Compound G0775]
tolC EC MIC (tolC EC): 0.063 µg/mL
WT PA MIC (WT PA): 2 µg/mL
WT EC MIC (WT EC): 0.125 µg/mL

Cc1nc(-c2ccc(C(C)(C)C)cc2)ncc1C(=O)N[C@@H](CCO)C(=O)N(C)[C@@H]1C(=O)N[C@@H](C)C(=O)N[C@H](C(=O)NCC#N)Cc2ccc(O)c(c2)-c2cc1ccc2O [Compound G8126]
WT PA MIC (WT PA): >64 µg/mL
WT EC MIC (WT EC): 32 µg/mL

CC(=O)O[C@H]1C[C@@]2(C)[C@@H](C[C@@H](OC(C)=O)[C@H]3[C@@]4(C)CC[C@@H](OC(C)=O)[C@@H](C)[C@@H]4CC[C@@]32C)/C1=C(\CCC=C(C)C)C(=O)O [FA diacetate]
MIC (E. coli MG1655): > 512 µg/mL
MIC (S. aureus ATCC 29213): 64 µg/mL

CC(=O)O[C@H]1C[C@@]2(C)[C@@H](C[C@@H](OC(C)=O)[C@H]3[C@@]4(C)CC[C@@H](OC(C)=O)[C@@H](C)[C@@H]4CC[C@@]32C)/C1=C(\CCC=C(C)C)C(=O)O/N=C(\N)CNCCCNCCCNCCCN [FA prodrug-diacetate]
MIC (P. aeruginosa PAO1 [1]; PAO1, Table 9, read-out: MIC P. aeruginosa PAO1): 32 µg/mL (≈ 38 µM)
MIC (E. coli MG1655): 16 µg/mL (≈ 19 µM)
MIC (S. aureus ATCC 29213): 16 µg/mL (≈ 19 µM)

CC(=O)NC[C@H]1CN(c2ccc(N3CCOCC3)c(F)c2)C(=O)O1 [Linezolid]
PAO1 MIC (P. aeruginosa PAO1 [1]; MH broth (Table 4)): >512 µg/mL
MIC (P. aeruginosa PAO1 [1]; [5]): > 512 µg/mL
MIC (P. aeruginosa PA14; [6]): > 512 µg/mL
MIC (P. aeruginosa PA1280; [7]): > 512 µg/mL

C[C@@H](O)[C@H]1C(=O)N2C(C(=O)O)=C(S[C@@H]3CN[C@H](C(=O)N(C)C)C3)[C@H](C)[C@H]12 [Meropenem]
PAO1 MIC (P. aeruginosa PAO1 [1]; MH broth (Table 4)): 0.25 µg/mL
MIC (P. aeruginosa PAO1 [1]; [5]): 0.25 µg/mL (≈ 0.652 µM)
accumulation in PAO1 (in words) (P. aeruginosa PAO1 [2]; FIG. 1a / FIG. 5): minimal accumulation
MIC (P. aeruginosa PA14; [6]): 0.5 µg/mL (≈ 1.3 µM)
MIC (P. aeruginosa PA1280; [7]): 0.5 µg/mL (≈ 1.3 µM)

CO[C@@H]1[C@@H](OC(N)=O)[C@@H](O)[C@H](Oc2ccc3c(O)c(NC(=O)c4ccc(O)c(CC=C(C)C)c4)c(=O)oc3c2C)OC1(C)C [Novobiocin]
PAO1 MIC (P. aeruginosa PAO1 [1]; MH broth (Table 4)): >512 µg/mL
MIC (P. aeruginosa PAO1 [1]; [5]): > 512 µg/mL
PAO1 + PMBN MIC (P. aeruginosa PAO1 [1]; co-treatment of 8 μg/mL of PMBN, MH broth): 1 µg/mL
change of accumulation upon membrane permeabilization (P. aeruginosa PAO1 [2]; treatment with PMBN, FIG. 1b): significant increase in accumulation
MIC (P. aeruginosa PA14; [6]): > 512 µg/mL
MIC (P. aeruginosa PA1280; [7]): > 512 µg/mL

CN(C)[C@@H]1C(=O)C(C(N)=O)=C(O)[C@@]2(O)C(=O)C3=C(O)c4c(O)cccc4[C@@](C)(O)[C@H]3C[C@@H]12 [Tetracycline]
PAΔ6 MIC (P. aeruginosa PAΔ6 [3]; MH or LB broth (Table 7)): 0.25 µg/mL
Fold change (MIC) (P. aeruginosa PAΔ6 [3]; WT MIC / PAΔ6 MIC (Table 7)): 64
PAO1 MIC (P. aeruginosa PAO1 [1]; MH broth (Table 4)): 16 µg/mL
PAO1 MIC (P. aeruginosa PAO1 [1]; WT P. aeruginosa PAO1, MH broth (Table 1)): 16 µg/mL
WT MIC (P. aeruginosa PAO1 [1]; WT P. aeruginosa PAO1, MH or LB broth (Table 7)): 16 µg/mL
WT Accum (P. aeruginosa PAO1 [2]; WT PAO1, ± s.e.m. (Table 7)): 452 ± 5 nmol/10^12 CFUs
tolC EC MIC (tolC EC): 0.25 µg/mL
PA14 MIC (P. aeruginosa PA14; MH broth (Table 4)): 8 µg/mL
PA efflux KO MIC (PA efflux KO): 0.25 µg/mL
WT PA MIC (WT PA): 16 µg/mL
WT EC MIC (WT EC): 1 µg/mL
PA1280 MIC (P. aeruginosa PA1280; MH broth (Table 4)): 32 µg/mL

CN(C)c1cc(NC(=O)CNC(C)(C)C)c(O)c2c1C[C@H]1C[C@H]3[C@H](N(C)C)C(O)=C(C(N)=O)C(=O)[C@@]3(O)C(O)=C1C2=O [Tigecycline]
PAO1 MIC (P. aeruginosa PAO1 [1]; MH broth (Table 4)): 1 µg/mL
MIC (P. aeruginosa PAO1 [1]; [5]): 1 µg/mL (≈ 1.71 µM)
accumulation relative to tetracycline (P. aeruginosa PAO1 [2]; FIG. 1a): accumulates to a higher extent than tetracycline
tolC EC MIC (tolC EC): 0.125 µg/mL
MIC (P. aeruginosa PA14; [6]): 2 µg/mL (≈ 3.41 µM)
PA efflux KO MIC (PA efflux KO): 0.125 µg/mL
WT PA MIC (WT PA): 1 µg/mL
WT EC MIC (WT EC): 0.5 µg/mL
MIC (P. aeruginosa PA1280; [7]): 16 µg/mL (≈ 27.3 µM)

CN[C@H](CC(C)C)C(=O)N[C@H]1C(=O)N[C@@H](CC(N)=O)C(=O)N[C@H]2C(=O)N[C@H]3C(=O)N[C@H](C(=O)N[C@H](C(=O)O)c4cc(O)cc(O)c4-c4cc3ccc4O)[C@H](O)c3ccc(c(Cl)c3)Oc3cc2cc(c3O[C@@H]2O[C@H](CO)[C@@H](O)[C@H](O)[C@H]2O[C@H]2C[C@](C)(N)[C@H](O)[C@H](C)O2)Oc2ccc(cc2Cl)[C@H]1O [Vancomycin]
Fold change (P. aeruginosa PAΔ6 [3]; MIC ratio WT PAO1 / PAΔ6 (Table 2)): 1
PAΔ6 MIC (P. aeruginosa PAΔ6 [3]; efflux pump KO strain, MH or LB broth (Table 2)): >512 µg/mL
PAO1 MIC (P. aeruginosa PAO1 [1]; MH broth (Table 4)): >512 µg/mL
MIC (P. aeruginosa PAO1 [1]; PAO1, read-out: PAO1 MIC): > 512 µg/mL
MIC (P. aeruginosa PAO1 [1]; PAO1, read-out: WT MIC): > 512 µg/mL
MIC (P. aeruginosa PA14; PA14, read-out: PA14 MIC): > 512 µg/mL
change of accumulation in efflux pump knockout PAΔ6 versus WT PAO1 (P. aeruginosa PAΔ6 [4]): no change in accumulation
MIC (P. aeruginosa PA1280; PA1280, read-out: PA1280 MIC): > 512 µg/mL
